Blank lines part the entries; values can stand above or below the molecule they belong to.
Legend:
Assay in all cases: radiometric filter-binding kinase assay
ABL1 (human) = ABL1 (human) (UniProt P00519)
CDK9 CCNT1 (human) = CDK9 CCNT1 (human) (UniProt P50750+O60563)
CSNK1G2 (human) = CSNK1G2 (human) (UniProt P78368)
DDR2 (human) = DDR2 (human) (UniProt Q16832)
EIF2AK3 (human) = EIF2AK3 (human) (UniProt Q9NZJ5)
IRAK1 (human) = IRAK1 (human) (UniProt P51617)
[1] = test system: OXSR1 (human), O95747 [T185E]
PAK6 (human) = PAK6 (human) (UniProt Q9NQU5)
PRKCG (human) = PRKCG (human) (UniProt P05129)
PTK6 (human) = PTK6 (human) (UniProt Q13882)
SIK2 (human) = SIK2 (human) (UniProt Q9H0K1)
SIK3 (human) = SIK3 (human) (UniProt Q9Y2K2)
STK16 (human) = STK16 (human) (UniProt O75716)
STK24 (human) = STK24 (human) (UniProt Q9Y6E0)
STK33 (human) = STK33 (human) (UniProt Q9BYT3)
TEK (human) = TEK (human) (UniProt Q02763)
TESK1 (human) = TESK1 (human) (UniProt Q15569)
TLK1 (human) = TLK1 (human) (UniProt Q9UKI8)
TSSK1B (human) = TSSK1B (human) (UniProt Q9BXA7)
TTBK1 (human) = TTBK1 (human) (UniProt Q5TCY1)
ULK1 (human) = ULK1 (human) (UniProt O75385)
ULK2 (human) = ULK2 (human) (UniProt Q8IYT8)
ZAP70 (human) = ZAP70 (human) (UniProt P43403)
MAPK11 (human) = MAPK11 (human) (UniProt Q15759)
WNK1 (human) = WNK1 (human) (UniProt Q9H4A3)

Sequence of SIK3 (human) (Q9Y2K2 whole entry, looked up): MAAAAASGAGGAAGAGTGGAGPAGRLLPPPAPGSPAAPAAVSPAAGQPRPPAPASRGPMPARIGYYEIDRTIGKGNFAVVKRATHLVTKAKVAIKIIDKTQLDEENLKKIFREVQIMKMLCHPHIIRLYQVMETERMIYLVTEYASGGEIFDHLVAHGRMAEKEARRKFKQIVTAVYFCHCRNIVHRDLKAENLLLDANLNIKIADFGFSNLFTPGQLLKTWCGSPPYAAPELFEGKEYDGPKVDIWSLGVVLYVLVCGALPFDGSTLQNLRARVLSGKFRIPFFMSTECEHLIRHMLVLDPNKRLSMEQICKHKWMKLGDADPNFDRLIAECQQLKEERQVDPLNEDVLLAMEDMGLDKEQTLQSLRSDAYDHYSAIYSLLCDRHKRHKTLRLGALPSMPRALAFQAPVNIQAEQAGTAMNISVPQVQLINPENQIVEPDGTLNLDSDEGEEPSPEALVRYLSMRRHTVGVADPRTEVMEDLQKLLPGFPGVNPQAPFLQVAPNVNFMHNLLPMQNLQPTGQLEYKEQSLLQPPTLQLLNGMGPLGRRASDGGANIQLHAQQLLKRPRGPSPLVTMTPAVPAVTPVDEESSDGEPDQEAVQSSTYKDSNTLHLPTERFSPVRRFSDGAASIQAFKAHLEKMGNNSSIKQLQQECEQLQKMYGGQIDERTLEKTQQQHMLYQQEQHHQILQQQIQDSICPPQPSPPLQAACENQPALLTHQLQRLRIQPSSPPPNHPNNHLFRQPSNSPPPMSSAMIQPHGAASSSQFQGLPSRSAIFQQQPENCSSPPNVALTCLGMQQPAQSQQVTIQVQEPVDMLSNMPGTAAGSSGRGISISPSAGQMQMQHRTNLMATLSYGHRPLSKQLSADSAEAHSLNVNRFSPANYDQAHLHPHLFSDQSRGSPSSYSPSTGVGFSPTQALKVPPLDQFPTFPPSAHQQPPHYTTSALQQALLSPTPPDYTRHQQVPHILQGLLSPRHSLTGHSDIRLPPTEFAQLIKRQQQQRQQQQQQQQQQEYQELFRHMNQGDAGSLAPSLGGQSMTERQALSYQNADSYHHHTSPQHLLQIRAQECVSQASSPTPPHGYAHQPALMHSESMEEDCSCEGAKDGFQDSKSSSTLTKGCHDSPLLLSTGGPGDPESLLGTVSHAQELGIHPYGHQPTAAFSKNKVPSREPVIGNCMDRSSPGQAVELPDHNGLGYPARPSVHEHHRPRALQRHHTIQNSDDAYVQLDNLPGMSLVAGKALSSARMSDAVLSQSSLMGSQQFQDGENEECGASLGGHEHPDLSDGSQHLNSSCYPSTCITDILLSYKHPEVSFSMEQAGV
Sequence of DDR2 (human) (Q16832 whole entry, looked up): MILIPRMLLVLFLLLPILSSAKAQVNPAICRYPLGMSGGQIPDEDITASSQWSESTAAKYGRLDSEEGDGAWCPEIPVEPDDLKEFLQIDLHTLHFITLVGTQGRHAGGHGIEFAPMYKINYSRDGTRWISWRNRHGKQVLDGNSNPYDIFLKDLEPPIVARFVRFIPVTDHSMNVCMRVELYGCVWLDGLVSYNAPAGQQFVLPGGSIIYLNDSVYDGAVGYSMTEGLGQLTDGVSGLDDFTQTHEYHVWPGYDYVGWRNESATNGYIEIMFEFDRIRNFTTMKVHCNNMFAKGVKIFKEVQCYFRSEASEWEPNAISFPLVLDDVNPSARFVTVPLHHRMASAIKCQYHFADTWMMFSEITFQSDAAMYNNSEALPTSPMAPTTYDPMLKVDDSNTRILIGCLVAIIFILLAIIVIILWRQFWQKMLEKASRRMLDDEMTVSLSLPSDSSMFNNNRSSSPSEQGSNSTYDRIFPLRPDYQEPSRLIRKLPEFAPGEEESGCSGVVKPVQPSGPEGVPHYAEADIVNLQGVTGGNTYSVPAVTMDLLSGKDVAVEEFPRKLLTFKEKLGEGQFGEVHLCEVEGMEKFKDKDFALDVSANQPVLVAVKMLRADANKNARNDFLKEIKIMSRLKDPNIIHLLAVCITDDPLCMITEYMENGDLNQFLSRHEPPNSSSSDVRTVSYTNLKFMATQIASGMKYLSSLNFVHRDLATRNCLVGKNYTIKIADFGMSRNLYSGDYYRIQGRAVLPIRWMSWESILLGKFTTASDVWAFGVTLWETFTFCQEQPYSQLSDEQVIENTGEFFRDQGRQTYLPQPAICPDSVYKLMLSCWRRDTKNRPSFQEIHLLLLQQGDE
Sequence of TESK1 (human) (Q15569 whole entry, looked up): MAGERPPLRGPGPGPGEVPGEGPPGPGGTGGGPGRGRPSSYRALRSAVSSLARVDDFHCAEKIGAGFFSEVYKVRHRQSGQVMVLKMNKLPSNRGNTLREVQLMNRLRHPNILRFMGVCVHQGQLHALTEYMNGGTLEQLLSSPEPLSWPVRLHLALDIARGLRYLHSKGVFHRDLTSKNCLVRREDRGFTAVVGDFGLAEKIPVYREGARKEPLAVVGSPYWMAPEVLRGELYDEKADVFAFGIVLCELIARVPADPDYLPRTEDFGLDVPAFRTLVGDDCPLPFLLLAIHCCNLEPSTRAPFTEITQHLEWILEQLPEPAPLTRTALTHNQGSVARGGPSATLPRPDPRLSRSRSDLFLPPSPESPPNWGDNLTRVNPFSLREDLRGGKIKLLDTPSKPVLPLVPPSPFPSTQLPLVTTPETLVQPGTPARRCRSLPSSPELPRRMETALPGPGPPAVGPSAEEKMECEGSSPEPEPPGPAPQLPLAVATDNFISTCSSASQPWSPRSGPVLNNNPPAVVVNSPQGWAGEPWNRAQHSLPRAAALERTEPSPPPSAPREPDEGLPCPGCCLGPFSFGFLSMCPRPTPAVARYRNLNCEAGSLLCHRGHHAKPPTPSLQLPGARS
Sequence of STK24 (human) (Q9Y6E0 whole entry, looked up): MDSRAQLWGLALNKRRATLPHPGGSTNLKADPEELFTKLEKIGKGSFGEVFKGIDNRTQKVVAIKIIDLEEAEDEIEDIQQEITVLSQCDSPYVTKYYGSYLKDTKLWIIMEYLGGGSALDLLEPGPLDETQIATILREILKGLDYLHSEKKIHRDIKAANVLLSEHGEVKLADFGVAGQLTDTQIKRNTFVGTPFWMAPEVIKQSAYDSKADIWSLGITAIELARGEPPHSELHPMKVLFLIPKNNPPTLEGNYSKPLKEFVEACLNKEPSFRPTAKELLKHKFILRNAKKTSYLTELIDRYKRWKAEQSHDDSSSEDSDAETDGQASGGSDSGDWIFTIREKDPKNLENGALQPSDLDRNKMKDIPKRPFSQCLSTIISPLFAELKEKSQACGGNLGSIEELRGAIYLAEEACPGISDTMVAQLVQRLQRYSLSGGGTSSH
Sequence of MAPK11 (human) (Q15759 whole entry, looked up): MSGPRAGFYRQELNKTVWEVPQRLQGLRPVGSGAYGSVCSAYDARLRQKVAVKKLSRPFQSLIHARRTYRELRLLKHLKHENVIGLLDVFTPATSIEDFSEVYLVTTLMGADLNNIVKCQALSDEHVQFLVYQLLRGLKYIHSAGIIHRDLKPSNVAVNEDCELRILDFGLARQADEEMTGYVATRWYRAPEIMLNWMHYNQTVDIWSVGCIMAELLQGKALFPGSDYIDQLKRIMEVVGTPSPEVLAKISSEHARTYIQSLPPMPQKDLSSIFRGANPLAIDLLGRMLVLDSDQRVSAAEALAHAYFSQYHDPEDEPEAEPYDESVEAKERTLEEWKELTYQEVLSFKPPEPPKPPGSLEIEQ
Sequence of IRAK1 (human) (P51617 whole entry, looked up): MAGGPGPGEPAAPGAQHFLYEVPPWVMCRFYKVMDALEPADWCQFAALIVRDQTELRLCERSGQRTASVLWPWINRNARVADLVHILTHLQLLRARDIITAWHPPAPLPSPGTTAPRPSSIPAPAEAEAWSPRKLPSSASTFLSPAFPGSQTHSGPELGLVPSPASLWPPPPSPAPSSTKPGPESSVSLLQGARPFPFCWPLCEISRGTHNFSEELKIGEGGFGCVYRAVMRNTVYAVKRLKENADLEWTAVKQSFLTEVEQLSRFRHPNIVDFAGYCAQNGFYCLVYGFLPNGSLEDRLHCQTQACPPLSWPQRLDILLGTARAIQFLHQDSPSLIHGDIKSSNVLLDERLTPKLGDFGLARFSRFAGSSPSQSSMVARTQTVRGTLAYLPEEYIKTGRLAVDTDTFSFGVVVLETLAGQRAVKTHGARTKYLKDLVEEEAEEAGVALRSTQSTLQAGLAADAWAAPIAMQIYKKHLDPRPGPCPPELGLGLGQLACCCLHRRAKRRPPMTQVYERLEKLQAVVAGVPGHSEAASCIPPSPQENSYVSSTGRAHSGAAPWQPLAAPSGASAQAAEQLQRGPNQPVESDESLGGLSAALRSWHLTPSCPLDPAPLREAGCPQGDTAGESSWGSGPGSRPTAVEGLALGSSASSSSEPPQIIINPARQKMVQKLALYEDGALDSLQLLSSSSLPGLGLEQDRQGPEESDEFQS
Sequence of PAK6 (human) (Q9NQU5 whole entry, looked up): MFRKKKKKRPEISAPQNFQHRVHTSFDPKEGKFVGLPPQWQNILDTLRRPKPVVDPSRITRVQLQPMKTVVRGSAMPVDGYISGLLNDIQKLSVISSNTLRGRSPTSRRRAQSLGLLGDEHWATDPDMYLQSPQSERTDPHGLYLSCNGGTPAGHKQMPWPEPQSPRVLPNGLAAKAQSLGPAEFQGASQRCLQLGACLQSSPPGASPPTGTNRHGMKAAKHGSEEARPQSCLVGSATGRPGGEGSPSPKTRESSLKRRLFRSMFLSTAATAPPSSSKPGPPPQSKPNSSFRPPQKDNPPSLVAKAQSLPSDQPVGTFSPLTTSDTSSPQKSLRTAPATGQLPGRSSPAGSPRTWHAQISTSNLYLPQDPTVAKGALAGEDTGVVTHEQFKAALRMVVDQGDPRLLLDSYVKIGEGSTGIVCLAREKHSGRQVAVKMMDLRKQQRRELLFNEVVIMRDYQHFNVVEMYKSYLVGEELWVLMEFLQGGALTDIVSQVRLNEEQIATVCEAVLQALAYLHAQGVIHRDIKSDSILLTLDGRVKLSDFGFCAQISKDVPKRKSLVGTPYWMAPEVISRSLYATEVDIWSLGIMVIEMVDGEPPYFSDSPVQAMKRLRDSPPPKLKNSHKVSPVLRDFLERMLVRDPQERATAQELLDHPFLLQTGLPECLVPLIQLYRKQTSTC

residual activity (ABL1 (human); compound 0.1 µM): 97% | residual activity (ABL1 (human); compound 1.0 µM): 86% | residual activity (CDK9 CCNT1 (human); compound 0.1 µM): 85% | residual activity (CDK9 CCNT1 (human); compound 1.0 µM): 80% | residual activity (CSNK1G2 (human); compound 0.1 µM): 109% | residual activity (CSNK1G2 (human); compound 1.0 µM): 87% | residual activity (DDR2 (human); compound 0.1 µM): 106% | residual activity (DDR2 (human); compound 1.0 µM): 97% | residual activity (EIF2AK3 (human); compound 0.1 µM): 103% | residual activity (EIF2AK3 (human); compound 1.0 µM): 93% | residual activity (IRAK1 (human); compound 0.1 µM): 93% | residual activity (IRAK1 (human); compound 1.0 µM): 63% | residual activity ([1]; compound 0.1 µM): 96% | residual activity ([1]; compound 1.0 µM): 91% | residual activity (PAK6 (human); compound 0.1 µM): 110% | residual activity (PAK6 (human); compound 1.0 µM): 96% | residual activity (PRKCG (human); compound 0.1 µM): 92% | residual activity (PRKCG (human); compound 1.0 µM): 91% | residual activity (PTK6 (human); compound 1.0 µM): 75% | residual activity (SIK2 (human); compound 0.1 µM): 100% | residual activity (SIK2 (human); compound 1.0 µM): 105% | residual activity (SIK3 (human); compound 0.1 µM): 88% | residual activity (SIK3 (human); compound 1.0 µM): 79% | residual activity (STK16 (human); compound 0.1 µM): 110% | residual activity (STK16 (human); compound 1.0 µM): 101% | residual activity (STK24 (human); compound 0.1 µM): 85% | residual activity (STK24 (human); compound 1.0 µM): 82% | residual activity (STK33 (human); compound 0.1 µM): 99% | residual activity (STK33 (human); compound 1.0 µM): 90% | residual activity (TEK (human); compound 0.1 µM): 105% | residual activity (TEK (human); compound 1.0 µM): 98% | residual activity (TESK1 (human); compound 0.1 µM): 89% | residual activity (TESK1 (human); compound 1.0 µM): 93% | residual activity (TLK1 (human); compound 0.1 µM): 99% | residual activity (TLK1 (human); compound 1.0 µM): 100% | residual activity (TSSK1B (human); compound 0.1 µM): 91% | residual activity (TSSK1B (human); compound 1.0 µM): 86% | residual activity (TTBK1 (human); compound 0.1 µM): 92% | residual activity (TTBK1 (human); compound 1.0 µM): 83% | residual activity (ULK1 (human); compound 0.1 µM): 27% | residual activity (ULK1 (human); compound 1.0 µM): 67% | residual activity (ULK2 (human); compound 0.1 µM): 28% | residual activity (ULK2 (human); compound 1.0 µM): 69% | residual activity (ZAP70 (human); compound 0.1 µM): 105%
SMILES: Cc1cc(NC(=O)c2cccc(NC(=O)/C=C/CN(C)C)c2)ccc1Nc1nccc(-c2cccnc2)n1

residual activity (ABL1 (human); compound 1.0 µM): 116% | residual activity (ABL1 (human); compound 10.0 µM): 100% | residual activity (CDK9 CCNT1 (human); compound 1.0 µM): 92% | residual activity (CDK9 CCNT1 (human); compound 10.0 µM): 100% | residual activity (CSNK1G2 (human); compound 1.0 µM): 101% | residual activity (CSNK1G2 (human); compound 10.0 µM): 97% | residual activity (DDR2 (human); compound 1.0 µM): 107% | residual activity (EIF2AK3 (human); compound 1.0 µM): 100% | residual activity (EIF2AK3 (human); compound 10.0 µM): 100% | residual activity (IRAK1 (human); compound 1.0 µM): 105% | residual activity (IRAK1 (human); compound 10.0 µM): 106% | residual activity (MAPK11 (human); compound 0.01 µM): 113% | residual activity (MAPK11 (human); compound 0.1 µM): 129% | residual activity (MAPK11 (human); compound 1.0 µM): 105% | residual activity (MAPK11 (human); compound 10.0 µM): 109% | residual activity ([1]; compound 1.0 µM): 112% | residual activity ([1]; compound 10.0 µM): 103% | residual activity (PAK6 (human); compound 0.01 µM): 108% | residual activity (PAK6 (human); compound 0.1 µM): 120% | residual activity (PAK6 (human); compound 1.0 µM): 99% | residual activity (PAK6 (human); compound 10.0 µM): 96% | residual activity (PRKCG (human); compound 10.0 µM): 87% | residual activity (PTK6 (human); compound 1.0 µM): 127% | residual activity (PTK6 (human); compound 10.0 µM): 116% | residual activity (SIK2 (human); compound 1.0 µM): 106% | residual activity (SIK2 (human); compound 10.0 µM): 78% | residual activity (SIK3 (human); compound 1.0 µM): 76% | residual activity (SIK3 (human); compound 10.0 µM): 58% | residual activity (STK16 (human); compound 1.0 µM): 105% | residual activity (STK16 (human); compound 10.0 µM): 104% | residual activity (STK24 (human); compound 1.0 µM): 110% | residual activity (STK24 (human); compound 10.0 µM): 110% | residual activity (STK33 (human); compound 1.0 µM): 89% | residual activity (STK33 (human); compound 10.0 µM): 43% | residual activity (TEK (human); compound 1.0 µM): 105% | residual activity (TEK (human); compound 10.0 µM): 76% | residual activity (TESK1 (human); compound 1.0 µM): 91% | residual activity (TESK1 (human); compound 10.0 µM): 101% | residual activity (TLK1 (human); compound 1.0 µM): 101% | residual activity (TLK1 (human); compound 10.0 µM): 115% | residual activity (TSSK1B (human); compound 1.0 µM): 88% | residual activity (TSSK1B (human); compound 10.0 µM): 64% | residual activity (TTBK1 (human); compound 1.0 µM): 112% | residual activity (TTBK1 (human); compound 10.0 µM): 99% | residual activity (WNK1 (human); compound 1.0 µM): 109% | residual activity (WNK1 (human); compound 10.0 µM): 104% | residual activity (ZAP70 (human); compound 1.0 µM): 98%
SMILES: CNc1nc(-c2ccc3c(N)n[nH]c3c2)cc(N2C[C@@H](C(=O)NC3CCCCC3)CC[C@H]2C)n1

— the kinase profiling compilation of Christmann-Franck et al. (2016)
